Legend:
[1] = system: patients with mCRPC with HRR gene alterations; conditions: male, human, in vivo
[2] = system: patients with mCRPC with HRR gene alterations; test: TALAPRO-2 (NCT03395197) Phase 3, Part 2, DDR/HRR-deficient cohort (Cohort 2): efficacy; format: in vivo, human
Procedure: In one embodiment, the increase in survival is measured by any of the following: progression free survival (PFS), radiographic PFS (rPFS), and overall survival (OS). PFS, rPFS and OS are clinically meaningful endpoints for measuring an increase in survival for patients treated with the combination of the present invention. […] OS is the length of time from either the date of diagnosis or the start of treatment for a disease, such as cancer, that patients diagnosed with the disease are still alive. In a clinical trial, measuring the PFS and OS are ways to see how well a new treatment works. For purposes of the clinical trial described here, rPFS refers to the time from the date of randomization to first objective evidence of radiographic progression assessed in soft tissue per Response Evaluation Criteria in Solid Tumors version 1.1 (RECIST 1.1) or in bone (upon subsequent confirmation) per Prostate Cancer Working Group (PCWG3) guidelines by Blinded Independent Central Review (BICR), or death, whichever occurs first. For purposes of the clinical trial described here, OS refers to the time from the date of randomization to death due to any cause.
This was an international, Phase 3, randomized, double-blind, two-part study for mCRPC patients, TALAPRO-2 (NCT03395197).
Part 2 was randomized, double-blind, and placebo-controlled and evaluated the efficacy and safety of talazoparib in combination with enzalutamide compared with placebo in combination with enzalutamide. From February 2019 to January 2022, 399 patients (169 from Cohort 1) were randomized 1:1 to receive either talazoparib or matching placebo in combination with open-label enzalutamide once daily. Randomization was stratified by prior novel hormonal therapy or taxane-based chemotherapy, e.g., abiraterone, orteronel, or docetaxel for castration-sensitive prostate cancer (yes/no) and DDR mutational status, also referred to as, homologous recombination repair gene alteration status (deficient vs. non deficient/unknown). Stratification factors were specified by the investigator, and recorded in the interactive web response system (IWRS) before randomization and used for the stratified analysis of the primary efficacy endpoint. However, as the IWRS grouped non-deficient and unknown status, a secondary stratified analysis based on homologous recombination repair gene alteration status derived from the clinical database was also performed and used to identify the non-deficient subpopulation.
Genomic screening to identify alterations in DDR genes was optional for patients in Part 1, but it was required for randomization in Part 2. Mutational status was determined by testing for the presence of mutations in defined DDR genes likely to sensitize to PARP inhibition using next generation sequencing (NGS) based gene panel test. Prior to randomization, patients consented to provide solid tumor tissue (de novo or archival) and/or blood-based samples, which were prospectively assessed for homologous recombination repair (HRR) gene alterations (BRCA1, BRCA2, PALB2, ATM, ATR, CHEK2, FANCA, RAD51C, NBN, MLH1, MRE11A, CDK12) using FoundationOne® CDx and/or FoundationOneLiquid® CDx. […] One patient was enrolled based on ctDNA results only. For exploratory analysis, available blood-based samples (not collected in China) were retrospectively tested using FoundationOneLiquid® CDx to determine the status of patients with a prospectively-assessed status of unknown.

[3] = BICR, measurable soft tissue disease
[4] = DDR-deficient population, overall
[5] = Non-BRCAm HRRm incl. 4 patients without HRR gene mutations (N = 129 vs 115)

SMILES: CNC(=O)c1ccc(N2C(=S)N(c3ccc(C#N)c(C(F)(F)F)c3)C(=O)C2(C)C)cc1F [Placebo + Enzalutamide]
- Patients with Grade 3 or higher TRAEs [1]: 28 (14) n (%)
- Patients with any TRAEs [1]: 144 (72.4) n (%)
- CR rate [2, 3]: 18.5%
- PD rate [2, 3]: 20.0%
- PR rate [2, 3]: 21.5%
- rPFS events by BICR ([2]; BRCA1/2 mutations subgroup): 54 events
- rPFS, Number of events ([2]; BRCAm (N = 71 vs 84)): 54 (64) n (%)
- Median PFS2 ([2]; DDR-deficient population): 28.1 months
- Median investigator-assessed rPFS ([2]; DDR-deficient population): 16.9 months
- Median time to use of cytotoxic chemotherapy ([2]; DDR-deficient population): NE/NR
- PFS2 events ([2]; DDR-deficient population): 61 events
- PSA response rate (decline from baseline PSA by at least 50%, confirmed) ([2]; DDR-deficient population): 63.1%
- Time to cytotoxic chemotherapy, events ([2]; DDR-deficient population): 65 events
- Median rPFS by BICR [2, 4]: 13.8 months
- rPFS events by BICR [2, 4]: 104 events
- Median OS ([2]; DDR-deficient population, interim): 33.7 months
- rPFS, Median months (95% CI) [2, 5]: 16.7 (13.8, 27.7) months
- rPFS, Number of events [2, 5]: 50 (43) n (%)
- rPFS by BICR, Median ([2]; gene subgroup: ATM Cluster): 27.7 mo
- rPFS by BICR, Median ([2]; gene subgroup: All HRR-deficient): 13.8 mo
- rPFS by BICR, Median ([2]; gene subgroup: BRCA Cluster): 11.0 mo
- rPFS by BICR, Median ([2]; gene subgroup: CDK12 Cluster): 13.8 mo
- rPFS by BICR, Median ([2]; gene subgroup: Only ATM): 27.7 mo
- rPFS by BICR, Median ([2]; gene subgroup: Only BRCA1): 11.7 mo
- rPFS by BICR, Median ([2]; gene subgroup: Only BRCA2): 11.0 mo
- rPFS by BICR, Median ([2]; gene subgroup: Only CDK12): 13.8 mo
- rPFS by BICR, Median ([2]; gene subgroup: Only PALB2): 8.6 mo
- rPFS by BICR, Median ([2]; gene subgroup: PALB2 Cluster): 8.3 mo
- patients who had died ([2]; interim OS analysis, 24% maturity overall): 26.6%
- OS events (deaths) ([2]; interim OS analysis, 96 deaths): 53 events
- Median OS (printed: Median rPFS) ([2]; non-BRCA1/2 mutations subgroup): 33.7 months
- rPFS events by BICR ([2]; non-BRCA1/2 mutations subgroup): 50 events
- Median rPFS by BICR ([2]; non-BRCA1/2 mutations subgroup, N=240): 16.7 months
- Objective response rate by BICR (RECIST 1.1) ([2]; patients with measurable soft tissue disease at baseline): 40.0%
